Measurements taken from ChEMBL document CHEMBL1255340, “In vitro activities of the Rx-01 oxazolidinones against hospital and community pathogens” (2008).
≈ marks a conversion by molar mass, not a printed value. Where “and” joins values, the source holds several entries; their conditions need not be identical. Equal entries are not always repeated.

Experiments:
Format in all cases: functional
Enterococcus faecium [1] = experiment: Antimicrobial activity against Enterococcus faecium A9650
Enterococcus faecium [2] = experiment: Antimicrobial activity against Enterococcus faecium A8948
Enterococcus faecium [3] = experiment: Antimicrobial activity against Enterococcus faecium A9621 by broth microdilution method
Enterococcus faecium [4] = experiment: Antimicrobial activity against Enterococcus faecium A8767
Streptococcus pneumoniae [5] = experiment: Antimicrobial activity against Streptococcus pneumoniae PU1071099 harboring 65WR66 deletion in ribosomal protein L4 by broth microdilution method
Staphylococcus aureus [6] = experiment: Antimicrobial activity against methicillin resistant Staphylococcus aureus 67-0
Staphylococcus aureus [7] = experiment: Antimicrobial activity against methicillin-resistant Staphylococcus aureus BK 11118
Staphylococcus aureus [8] = experiment: Antimicrobial activity against methicillin-resistant Staphylococcus aureus BK 11512
Enterococcus faecalis [9] = experiment: Antimicrobial activity against vancomycin-resistant Enterococcus faecalis 03B1069
Streptococcus pneumoniae [10] = experiment: Antimicrobial activity against Streptococcus pneumoniae 02J1258
Streptococcus pneumoniae [11] = experiment: Antimicrobial activity against Streptococcus pneumoniae 02J1175
Haemophilus influenzae [12] = experiment: Antimicrobial activity against Haemophilus influenzae 54A1100
Haemophilus influenzae [13] = experiment: Antimicrobial activity against Haemophilus influenzae A1950
Staphylococcus aureus [14] = experiment: Antimicrobial activity against Staphylococcus aureus A7820
Enterococcus faecium [15] = experiment: Antimicrobial activity against Enterococcus faecium A6349
Streptococcus pneumoniae [16] = experiment: Antimicrobial activity against Streptococcus pneumoniae 02J1258 assessed as log reduction in bacterial growth at 4 times MIC after 24 hrs by time-kill assay
Streptococcus pneumoniae [17] = experiment: Antimicrobial activity against Streptococcus pneumoniae 02J1175 assessed as log reduction in bacterial growth at 4 times MIC after 24 hrs by time-kill assay
Haemophilus influenzae [18] = experiment: Antimicrobial activity against Haemophilus influenzae 54A1100 assessed as log reduction in bacterial growth at 4 times MIC after 24 hrs by time-kill assay
Haemophilus influenzae [19] = experiment: Antimicrobial activity against Haemophilus influenzae 54A1100 assessed as log reduction in bacterial growth at 8 times MIC after 24 hrs by time-kill assay
Streptococcus pneumoniae [20] = experiment: Antimicrobial activity against Streptococcus pneumoniae 02J1258 assessed as log reduction in bacterial growth at 8 times MIC after 24 hrs by time-kill assay
Streptococcus pneumoniae [21] = experiment: Antimicrobial activity against Streptococcus pneumoniae 02J1175 assessed as log reduction in bacterial growth at 8 times MIC after 24 hrs by time-kill assay
Haemophilus influenzae [22] = experiment: Antimicrobial activity against Haemophilus influenzae A1950 assessed as log reduction in bacterial growth at 4 times MIC after 24 hrs by time-kill assay
Haemophilus influenzae [23] = experiment: Antimicrobial activity against Haemophilus influenzae A1950 assessed as log reduction in bacterial growth at 8 times MIC after 24 hrs by time-kill assay
Staphylococcus aureus [24] = experiment: Antimicrobial activity against methicillin-susceptible Staphylococcus aureus nosocomial isolate
Enterococcus faecalis [25] = experiment: Antimicrobial activity against vancomycin-resistant Enterococcus faecalis nosocomial isolate
Streptococcus pneumoniae [26] = experiment: Antimicrobial activity against Streptococcus pneumoniae harboring erm(B) gene by broth microdilution method
Streptococcus pneumoniae [27] = experiment: Antimicrobial activity against Streptococcus pneumoniae harboring erm(B) and mef(A) gene
Streptococcus pneumoniae [28] = experiment: Antimicrobial activity against Streptococcus pneumoniae ribosomal mutant
Streptococcus pyogenes = experiment: Antimicrobial activity against Streptococcus pyogenes
Moraxella catarrhalis = experiment: Antimicrobial activity against Moraxella catarrhalis
Staphylococcus aureus [29] = experiment: Antimicrobial activity against Staphylococcus aureus ATCC 29213
Staphylococcus aureus [30] = experiment: Antimicrobial activity against Staphylococcus aureus A7819 harboring G2576U mutation in 23S rRNA
Staphylococcus aureus [31] = experiment: Antimicrobial activity against Staphylococcus aureus A8833 harboring U2500A mutation in 23S rRNA
Staphylococcus aureus [32] = experiment: Antimicrobial activity against Staphylococcus aureus A8831 harboring U2500A mutation in 23S rRNA
Staphylococcus aureus [33] = experiment: Antimicrobial activity against Staphylococcus aureus A7817
Staphylococcus aureus [34] = experiment: Antimicrobial activity against Staphylococcus aureus A8761
Staphylococcus aureus [35] = experiment: Antimicrobial activity against Staphylococcus aureus A8727
Staphylococcus hominis = experiment: Antimicrobial activity against Staphylococcus hominis A7828
[36] = tested on: Staphylococcus epidermidis; experiment: Antimicrobial activity against Staphylococcus epidermidis A8934
Staphylococcus capitis = experiment: Antimicrobial activity against Staphylococcus capitis A8935
Staphylococcus aureus [37] = experiment: Antimicrobial activity against Staphylococcus aureus pL150
Staphylococcus aureus [38] = experiment: Antimicrobial activity against Staphylococcus aureus pLXM1 harboring cfr gene
Enterococcus faecalis [39] = experiment: Antimicrobial activity against Enterococcus faecalis ATCC 29212
Enterococcus faecalis [40] = experiment: Antimicrobial activity against Enterococcus faecalis ATCC 29212-P5 harboring G2576U mutation in 23S rRNA
Enterococcus faecalis [41] = experiment: Antimicrobial activity against Enterococcus faecalis A6350
Enterococcus faecalis [42] = experiment: Antimicrobial activity against Enterococcus faecalis A6343
Enterococcus faecalis [43] = experiment: Antimicrobial activity against Enterococcus faecalis A5962
Enterococcus faecalis [44] = experiment: Antimicrobial activity against Enterococcus faecalis A7789
Enterococcus faecium [45] = experiment: Antimicrobial activity against Enterococcus faecium A5959
Enterococcus faecium [46] = experiment: Antimicrobial activity against Enterococcus faecium A5960
Enterococcus faecium [47] = experiment: Antimicrobial activity against Enterococcus faecium A6345
Enterococcus faecium [48] = experiment: Antimicrobial activity against Enterococcus faecium A6348 harboring G2576U mutation in 23S rRNA
Enterococcus faecium [49] = experiment: Antimicrobial activity against Enterococcus faecium A6349 harboring G2576U mutation in 23S rRNA
Enterococcus faecium [50] = experiment: Antimicrobial activity against Enterococcus faecium A8130
Haemophilus influenzae [51] = experiment: Antimicrobial activity against Haemophilus influenzae
[52] = Streptococcus pneumoniae, read-out: MIC

Structure (SMILES): CC(=O)NC[C@H]1CN(c2ccc(-c3ccc(CNCCCF)cc3)c(F)c2)C(=O)O1
- MIC (Enterococcus faecium [1]): 1 µg/mL (≈ 2.4 µM)
- MIC (Enterococcus faecium [2]): 0.5 µg/mL (≈ 1.2 µM)
- MIC (Enterococcus faecium [3]): 4 µg/mL (≈ 9.58 µM)
- MIC (Enterococcus faecium [4]): 2 µg/mL (≈ 4.79 µM)
- MIC (Streptococcus pneumoniae [5]): 0.5 µg/mL (≈ 1.2 µM)
- MIC (Staphylococcus aureus [6]): 1 µg/mL (≈ 2.4 µM)
- MIC (Staphylococcus aureus [7]): 1 µg/mL (≈ 2.4 µM)
- MIC (Staphylococcus aureus [8]): 2 µg/mL (≈ 4.79 µM)
- MIC (Enterococcus faecalis [9]): 0.5 µg/mL (≈ 1.2 µM)
- MIC (Streptococcus pneumoniae [10]): 0.25 µg/mL (≈ 0.599 µM)
- MIC (Streptococcus pneumoniae [11]): 0.125 µg/mL (≈ 0.299 µM)
- MIC (Haemophilus influenzae [12]): 2 µg/mL (≈ 4.79 µM)
- MIC (Haemophilus influenzae [13]): 4 µg/mL (≈ 9.58 µM)
- MIC (Staphylococcus aureus [14]): 16 µg/mL (≈ 38.3 µM)
- MIC (Enterococcus faecium [15]): 1 µg/mL (≈ 2.4 µM)
- FC (Streptococcus pneumoniae [16]): >3
- FC (Streptococcus pneumoniae [17]): >3
- FC (Haemophilus influenzae [18]): >3
- FC (Haemophilus influenzae [19]): >3
- FC (Streptococcus pneumoniae [20]): >3
- FC (Streptococcus pneumoniae [21]): >3
- FC (Haemophilus influenzae [22]): >3
- FC (Haemophilus influenzae [23]): >3
- MIC (Staphylococcus aureus [24]): 1 µg/mL (≈ 2.4 µM)
- MIC (Staphylococcus aureus [24]; Staphylococcus aureus, read-out: MIC): 0.5 µg/mL (≈ 1.2 µM)
- MIC (Enterococcus faecalis [25]): 0.5 µg/mL (≈ 1.2 µM)
- MIC (Enterococcus faecalis [25]; Enterococcus faecalis, read-out: MIC): ≤ 0.25 µg/mL
- MIC (Streptococcus pneumoniae [26]; [52]): ≤ 0.25 µg/mL
- MIC (Streptococcus pneumoniae [27]): ≤ 0.25 µg/mL
- MIC (Streptococcus pneumoniae [28]): ≤ 0.25 µg/mL
- MIC (Streptococcus pyogenes): 0.25 µg/mL (≈ 0.599 µM)
- MIC (Streptococcus pyogenes; Streptococcus pyogenes, read-out: MIC): 0.125 µg/mL (≈ 0.299 µM)
- MIC (Moraxella catarrhalis): 2 µg/mL (≈ 4.79 µM)
- MIC (Moraxella catarrhalis; Moraxella catarrhalis, read-out: MIC): 1 µg/mL (≈ 2.4 µM)
- MIC (Staphylococcus aureus [29]): 2 µg/mL (≈ 4.79 µM)
- MIC (Staphylococcus aureus [30]): 16 µg/mL (≈ 38.3 µM)
- MIC (Staphylococcus aureus [31]): 32 µg/mL (≈ 76.7 µM)
- MIC (Staphylococcus aureus [32]): 64 µg/mL (≈ 153 µM)
- MIC (Staphylococcus aureus [33]): 16 µg/mL (≈ 38.3 µM)
- MIC (Staphylococcus aureus [34]): 8 µg/mL (≈ 19.2 µM)
- MIC (Staphylococcus aureus [35]): 4 µg/mL (≈ 9.58 µM)
- MIC (Staphylococcus hominis): 4 µg/mL (≈ 9.58 µM)
- MIC [36]: 4 µg/mL (≈ 9.58 µM)
- MIC (Staphylococcus capitis): 1 µg/mL (≈ 2.4 µM)
- MIC (Staphylococcus aureus [37]): 0.5 µg/mL (≈ 1.2 µM)
- MIC (Staphylococcus aureus [38]): 1 µg/mL (≈ 2.4 µM)
- MIC (Enterococcus faecalis [39]): 1 µg/mL (≈ 2.4 µM)
- MIC (Enterococcus faecalis [40]): 2 µg/mL (≈ 4.79 µM)
- MIC (Enterococcus faecalis [41]): 1 µg/mL (≈ 2.4 µM)
- MIC (Enterococcus faecalis [42]): 2 µg/mL (≈ 4.79 µM)
- MIC (Enterococcus faecalis [43]): 4 µg/mL (≈ 9.58 µM)
- MIC (Enterococcus faecalis [44]): 4 µg/mL (≈ 9.58 µM)
- MIC (Enterococcus faecium [45]): 4 µg/mL (≈ 9.58 µM)
- MIC (Enterococcus faecium [46]): 4 µg/mL (≈ 9.58 µM)
- MIC (Enterococcus faecium [47]): 4 µg/mL (≈ 9.58 µM)
- MIC (Enterococcus faecium [48]): 4 µg/mL (≈ 9.58 µM)
- MIC (Enterococcus faecium [49]): 1 µg/mL (≈ 2.4 µM)
- MIC (Enterococcus faecium [50]): 2 µg/mL (≈ 4.79 µM)

Structure (SMILES): CC[C@H]1OC(=O)[C@H](C)[C@@H](O[C@H]2C[C@@](C)(OC)[C@@H](O)[C@H](C)O2)[C@H](C)[C@@H](O[C@@H]2O[C@H](C)C[C@H](N(C)C)[C@H]2O)[C@](C)(O)C[C@@H](C)CN(C)[C@H](C)[C@@H](O)[C@]1(C)O [AZITHROMYCIN]
- MIC (Enterococcus faecium [1]): > 128 µg/mL
- MIC (Enterococcus faecium [2]): > 128 µg/mL
- MIC (Enterococcus faecium [3]): 16 µg/mL (≈ 21.4 µM)
- MIC (Enterococcus faecium [4]): > 128 µg/mL
- MIC (Streptococcus pneumoniae [5]): 4 µg/mL (≈ 5.34 µM)
- MIC (Staphylococcus aureus [6]): > 128 µg/mL
- MIC (Staphylococcus aureus [7]): > 128 µg/mL
- MIC (Staphylococcus aureus [8]): > 128 µg/mL
- MIC (Enterococcus faecalis [9]): > 128 µg/mL
- MIC (Streptococcus pneumoniae [10]): > 128 µg/mL
- MIC (Streptococcus pneumoniae [11]): 32 µg/mL (≈ 42.7 µM)
- MIC (Haemophilus influenzae [12]): 1 µg/mL (≈ 1.34 µM)
- MIC (Haemophilus influenzae [13]): 4 µg/mL (≈ 5.34 µM)
- MIC (Staphylococcus aureus [14]): > 128 µg/mL
- MIC (Enterococcus faecium [15]): > 128 µg/mL
- MIC (Streptococcus pneumoniae [26]; [52]): > 128 µg/mL
- MIC (Streptococcus pyogenes): 0.03 µg/mL and 0.06 µg/mL
- MIC (Staphylococcus aureus [29]): 1 µg/mL (≈ 1.34 µM)
- MIC (Staphylococcus aureus [30]): 2 µg/mL (≈ 2.67 µM)
- MIC (Staphylococcus aureus [31]): > 128 µg/mL
- MIC (Staphylococcus aureus [32]): > 128 µg/mL
- MIC (Staphylococcus aureus [33]): 1 µg/mL (≈ 1.34 µM)
- MIC (Staphylococcus aureus [34]): > 128 µg/mL
- MIC (Staphylococcus aureus [35]): 16 µg/mL (≈ 21.4 µM)
- MIC (Staphylococcus hominis): > 128 µg/mL
- MIC [36]: > 128 µg/mL
- MIC (Staphylococcus capitis): 64 µg/mL (≈ 85.4 µM)
- MIC (Staphylococcus aureus [37]): 0.25 µg/mL (≈ 0.334 µM)
- MIC (Staphylococcus aureus [38]): 0.5 µg/mL (≈ 0.668 µM)
- MIC (Enterococcus faecalis [39]): 8 µg/mL (≈ 10.7 µM)
- MIC (Enterococcus faecalis [40]): 8 µg/mL (≈ 10.7 µM)
- MIC (Enterococcus faecalis [41]): 4 µg/mL (≈ 5.34 µM)
- MIC (Enterococcus faecalis [42]): > 128 µg/mL
- MIC (Enterococcus faecalis [43]): > 128 µg/mL
- MIC (Enterococcus faecalis [44]): > 128 µg/mL
- MIC (Enterococcus faecium [45]): 8 µg/mL (≈ 10.7 µM)
- MIC (Enterococcus faecium [46]): > 128 µg/mL
- MIC (Enterococcus faecium [47]): 2 µg/mL (≈ 2.67 µM)
- MIC (Enterococcus faecium [48]): > 128 µg/mL
- MIC (Enterococcus faecium [50]): 4 µg/mL (≈ 5.34 µM)

Structure (SMILES): CCC[C@@H]1C[C@@H](C(=O)N[C@@H]([C@H]2O[C@H](SC)[C@H](O)[C@@H](O)[C@H]2O)[C@H](C)Cl)N(C)C1 [CLINDAMYCIN]
- MIC (Streptococcus pneumoniae [26]): >128 µg/mL
- MIC (Streptococcus pneumoniae [26]; [52]): > 64 µg/mL

Structure (SMILES): C[C@H]1COc2c(N3CCN(C)CC3)c(F)cc3c(=O)c(C(=O)O)cn1c23.C[C@H]1COc2c(N3CCN(C)CC3)c(F)cc3c(=O)c(C(=O)O)cn1c23.O [LEVOFLOXACIN]
- MIC (Haemophilus influenzae [51]): 0.016 µg/mL
- MIC (Haemophilus influenzae [51]; Haemophilus influenzae, read-out: MIC): 0.008 µg/mL
